What was measured:
[1] = tested on: human low density lipoprotein (LDL); test: LDL measurement assay (MDA formation during LDL peroxidation); type: biochemical
Protocol: (§1) The biological activities (e.g., antioxidative activities) of tetrapyrrole compounds described above can be evaluated by a number of assays. For example, an antioxidative activity of a test compound is evaluated by determining the compound's ability to inhibit the formation of conjugated diene during […] linoleic acid peroxidation (Wallin et al (1993) Anal. Biochem. 208: 10-15), or to inhibit the formation of malonyldialdhyde (MDA) during human low density lipoprotein (LDL) peroxidation (Yagi (1982) In lipid peroxides in Biology and Medicine. Yagi, K. (ed), pp. 223-242, Academic Press, New York). In another example, an antioxidative activity of a test compound is evaluated by determining the compound's ability to scavenge the free radicals of ? -diphenyl- ? -picrylhydrazyl (DPPH), or to scavenge superoxide anion, or to chelate Fe2+ cation, or to reduce power. See, e.g., Shimada et aL (1992) J. Agric. Food. Chem. 40: 945-948; Robak & Gryglewski (1988) Biochem. Pharma. 37: 837-841; Dinis et aL (1994) Arch Biochem Biophys 315: 161-169; and Oyaizu (1986) Nippon Shokuhin Kogyo Gakkaishi 35: 771-775.
Under a linoleic acid emulsion assay (see, e.g., Mitsuda et al. Eiyo Shokuryo (1966) 19:210-0.214 and Wallin et al. Anal. Biochem. (1993) 208:10-15), various degrees of inhibition of conjugated diene formation were observed during lipid peroxidation. In addition to Compounds 1-6, chlorophylls a and b were also tested. […] Further, compounds chelated with Mg, e.g., Compounds 1 and 2, had stronger antioxidative property than those without chelation, e.g., Compounds 3 and 4.

DPPH scavenging assay = type: physicochemical; conditions: DPPH free radical
Protocol: as §1
The compounds were also tested in four other assays, i.e., DPPH scavenging assay, superoxide anion scavenging assay, Fe^2+ chelation assay, and reduction assay. See Shimada et al. J. Agric. Food Chem. (1992) 40:945-948; Robak et al. Biochem. Pharnia. (1988) 37:837-841; Dinis et al. Arch. Biochem. Biophys. (1994) 315:161-169; and Oyaizu et al. Nippon Shokuhin Kogyo Gakkaishi (1986) 35:771-775. Compounds 3 and 4 were stronger scavengers than Compounds 5 and 6 in removing DPPH, which in turn were stronger scavengers than chlorophylls a and b and Compounds 1 and 2. […] The I50 values as to chelating Fe^2+ were lower than those as to scavenging DPPH free radical.

[2] = superoxide anion scavenging assay; type: physicochemical; conditions: increasing concentrations
Protocol: as §1
The compounds were also tested in four other assays, i.e., DPPH scavenging assay, superoxide anion scavenging assay, Fe^2+ chelation assay, and reduction assay. See Shimada et al. J. Agric. Food Chem. (1992) 40:945-948; Robak et al. Biochem. Pharnia. […]

C=Cc1c(C)c2cc3nc(c4c5[nH]c(cc6nc(cc1[nH]2)C(C=O)=C6CC)c(C)c5C(=O)[C@@H]4C(=O)OC)[C@@H](CCC(=O)OC/C=C(\C)CCC[C@H](C)CCC[C@H](C)CCCC(C)C)[C@@H]3C [chlorophyll b, reference compound]
IC50 [1]: 26 µM
IC50 (DPPH scavenging assay): ~200 µM

C=Cc1c(C)c2cc3nc(c4c5[nH]c(cc6nc(cc1[nH]2)C(C)=C6CC)c(C)c5C(=O)[C@@H]4C(=O)OC)[C@@H](CCC(=O)O)[C@@H]3C [Compound 3]
IC50 [1]: 21 µM
IC50 (DPPH scavenging assay): ~40 µM

C=Cc1c(C)c2cc3nc(c4c5[nH]c(cc6nc(cc1[nH]2)C(C)=C6CC)c(C)c5C(=O)C4C(=O)OC)C(CCC(=O)OCC=C(C)CCCC(C)CCCC(C)CCCC(C)C)C3C (stereo not shown) [Compound 5]
IC50 [1]: 17 µM
IC50 (DPPH scavenging assay): ~160 µM
superoxide anion scavenging ability as concentration increased [2]: a gradual increase and a subsequent plateau in their scavenging ability

C=Cc1c(C)c2cc3nc(c4c5[nH]c(cc6nc(cc1[nH]2)C(C)=C6CC)c(C)c5C(=O)[C@@H]4C(=O)OC)[C@@H](CCC(=O)O)[C@@H]3C [Compound 1]
IC50 [1]: 10 µM
IC50 (DPPH scavenging assay): > 700 µM

C=Cc1c(C)c2cc3nc(c4c5[nH]c(cc6nc(cc1[nH]2)C(C=O)=C6CC)c(C)c5C(=O)[C@@H]4C(=O)OC)[C@@H](CCC(=O)O)[C@@H]3C [Compound 2]
IC50 [1]: 42 µM
IC50 (DPPH scavenging assay): ~535 µM

C=Cc1c(C)c2cc3nc(c4c5[nH]c(cc6nc(cc1[nH]2)C(C)=C6CC)c(C)c5C(=O)[C@@H]4C(=O)OC)[C@@H](CCC(=O)OC/C=C(\C)CCC[C@H](C)CCC[C@H](C)CCCC(C)C)[C@@H]3C [chlorophyll a, reference compound]
IC50 [1]: 5 µM
IC50 (DPPH scavenging assay): ~265 µM

C=Cc1c(C)c2cc3nc(c4c5[nH]c(cc6nc(cc1[nH]2)C(C=O)=C6CC)c(C)c5C(=O)C4C(=O)OC)C(CCC(=O)OCC=C(C)CCCC(C)CCCC(C)CCCC(C)C)C3C (stereo not shown) [Compound 6]
IC50 [1]: 54 µM
IC50 (DPPH scavenging assay): ~120 µM
superoxide anion scavenging ability as concentration increased [2]: a gradual increase and a subsequent plateau in their scavenging ability

Cc1c(C)c2c(c(C)c1O)CCC(C)(C(=O)O)O2 (stereo not shown) [Trolox, reference compound]
IC50 [1]: ~16 µM

C=Cc1c(C)c2cc3nc(c4c5[nH]c(cc6nc(cc1[nH]2)C(C=O)=C6CC)c(C)c5C(=O)[C@@H]4C(=O)OC)[C@@H](CCC(=O)O)[C@@H]3C [Compound 4]
IC50 [1]: 20 µM
IC50 (DPPH scavenging assay): ~28 µM
